Reference: patent US20100021471A1, “CARBON NANOTUBE-BASED DRUG DELIVERY SYSTEMS AND METHODS OF MAKING SAME” (Brookhaven Science Associates, LLC, priority 2008, published 2010)
pIC50: −log10 of the molar value.

System: L1210FR cells
Assay: MTT cytotoxicity assay, L1210FR cells
Format: cell-based
Conditions: read-out: IC50 of drug itself
Method: Cell culture. L1210 (ATCC) and L1210FR (a gift from Dr. Gregory Russell-Jones, Access Pharmaceuticals Australia Pty Ltd., Targeted Delivery, Unit 5, 15-17 Gibbes St, Chatswood, NSW, Sydney 2067. Australia) were grown as suspension in a RPMI-1640 cell culture medium (Gibco) in the absence of folic acid (FA) supplemented with 10% (v/v) heat-inactivated fetal bovine serum (FBS) and 1% (v/v) Penicillin and Streptomycin (P/S) at 37° C. in humidified atmosphere with 5% CO2. W1-38 embryonic fibroblast cells (ATCC) were cultured as monolayers on a 100 mm tissue culture dishes in a DMEM cell culture medium (Gibco) supplemented with 10% (v/v) heat-inactivated FBS and 1% (v/v) P/S at 37° C. in humidified atmosphere with 5% CO2. The cells were harvested, collected by centrifugation at 1000 rpm for 6 min, and resuspended in fresh medium at different cell density for biological experiments.
Cytotoxicity assay of conjugate 3. The cells were harvested, collected, and resuspended in 100 μL at a concentration of 2×10^4 cells per well in 96-well plates. For the adhesive cell type, the cells were allowed to reseed to the bottom of the plates overnight and the fresh medium were added to each well upon removal of the old medium. […] At the end of this time, the number of viable cells each wells was determined by a quantitative colorimetric staining assay using a tetrazolium salt (MTT, Sigma Chemical Co.). […]

SB-T-1214-fluorescein was tested, and the pIC50 was 7.06.
